Data from patent US11104676B2 (priority 2018, dated 2021).

How the values were obtained:
[1] = target: His-tagged recombinant human AXL cytoplasmic domain (Homo sapiens (Human), UniProt P30530); details: read-out: AXL enzyme IC50
Experimental: (§1) Compounds of Formula I were screened for their ability to inhibit AXL kinase using Invitrogen's LanthaScreen™ Eu Kinase Binding technology. […] After a 60-minute incubation at 22° C., the reaction was measured using a PerkinElmer EnVision multimode plate reader via TR-FRET dual wavelength detection, and the percent of control (POC) was calculated using a ratiometric emission factor. […] The POC values are fit to a 4 parameter logistic curve and the IC50 value is point where the curve crosses 50 POC.

[2] = target: GST-tagged recombinant human TYRO3 kinase domain (Homo sapiens (Human), UniProt Q06418); details: read-out: TYRO3 enzyme IC50
[3] = target: His-tagged recombinant human MER cytoplasmic domain (Homo sapiens (Human), UniProt Q12866); details: read-out: MER enzyme IC50
His-tagged recombinant human MER cytoplasmic domain, sequence (Q12866 527-999): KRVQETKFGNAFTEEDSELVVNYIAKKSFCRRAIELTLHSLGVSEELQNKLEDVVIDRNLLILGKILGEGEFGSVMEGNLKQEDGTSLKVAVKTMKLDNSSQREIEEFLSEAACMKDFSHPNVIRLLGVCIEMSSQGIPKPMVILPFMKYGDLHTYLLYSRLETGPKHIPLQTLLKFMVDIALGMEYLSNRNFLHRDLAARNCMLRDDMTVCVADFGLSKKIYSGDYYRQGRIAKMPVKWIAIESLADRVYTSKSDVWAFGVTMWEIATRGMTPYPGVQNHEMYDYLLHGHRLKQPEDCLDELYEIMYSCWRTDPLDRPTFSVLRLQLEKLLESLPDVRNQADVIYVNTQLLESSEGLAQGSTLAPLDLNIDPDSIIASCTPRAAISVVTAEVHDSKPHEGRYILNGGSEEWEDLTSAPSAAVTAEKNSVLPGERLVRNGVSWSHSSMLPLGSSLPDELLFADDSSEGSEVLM
Experimental: as §1

GST-tagged recombinant human TYRO3 kinase domain, sequence (Q06418 518-790): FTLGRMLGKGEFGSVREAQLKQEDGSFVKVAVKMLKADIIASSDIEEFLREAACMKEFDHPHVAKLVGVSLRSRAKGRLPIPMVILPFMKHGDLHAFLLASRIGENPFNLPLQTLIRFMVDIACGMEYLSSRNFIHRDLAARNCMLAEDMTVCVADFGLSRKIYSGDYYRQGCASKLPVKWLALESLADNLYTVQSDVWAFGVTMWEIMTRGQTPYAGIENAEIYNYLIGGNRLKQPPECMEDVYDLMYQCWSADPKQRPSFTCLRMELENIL
His-tagged recombinant human AXL cytoplasmic domain, sequence (P30530 473-894): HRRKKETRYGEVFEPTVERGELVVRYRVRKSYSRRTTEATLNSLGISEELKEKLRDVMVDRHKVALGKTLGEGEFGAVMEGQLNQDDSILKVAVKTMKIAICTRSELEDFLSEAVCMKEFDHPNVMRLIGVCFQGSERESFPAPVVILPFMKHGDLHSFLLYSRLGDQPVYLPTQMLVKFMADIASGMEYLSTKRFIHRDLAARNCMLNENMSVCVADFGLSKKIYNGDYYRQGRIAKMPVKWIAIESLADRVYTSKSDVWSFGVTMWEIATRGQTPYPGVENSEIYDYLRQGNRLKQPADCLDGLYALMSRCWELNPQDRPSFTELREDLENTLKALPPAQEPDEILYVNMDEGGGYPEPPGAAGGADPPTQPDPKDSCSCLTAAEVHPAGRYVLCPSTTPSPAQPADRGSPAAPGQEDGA

Compound | IC50 [1] [nM] | IC50 [2] [nM] | IC50 [3] [nM]
C[C@H](CO)Nc1n[nH]c2nccc(Oc3ccc(NC(=O)C4CC5(CC5)CN(c5ccc(F)cc5)C4=O)cc3F)c12 (stereo partly drawn) [Example 140, N-(3-fluoro-4-((3-(((R)-1-hydroxypropan-2-yl)amino)-1H-pyrazolo[3,4-b]pyridin-4-yl)oxy)phenyl)-5-(4-fluorophenyl)-6-oxo-5-azaspiro[2.5]octane-7-carboxamide] | 355 | 1000 | 161
C[C@H](CO)Nc1n[nH]c2nccc(Oc3ccc(NC(=O)C4(C)CCCN(c5ccc(F)cc5)C4=O)cc3F)c12 (stereo partly drawn) [Example 141, N-(3-fluoro-4-((3-(((R)-1-hydroxypropan-2-yl)amino)-1H-pyrazolo[3,4-b]pyridin-4-yl)oxy)phenyl)-1-(4-fluorophenyl)-3-methyl-2-oxopiperidine-3-carboxamide] | 485 | 1000 | 178
COC[C@@H](C)Nc1n[nH]c2nccc(Oc3ccc(NC(=O)c4cc(C(C)C)nn(-c5ccc(F)cc5)c4=O)cc3F)c12 [Example 175, (R)-N-(3-fluoro-4-((3-((1-methoxypropan-2-yl)amino)-1H-pyrazolo[3,4-b]pyridin-4-yl)oxy)phenyl)-2-(4-fluorophenyl)-6-isopropyl-3-oxo-2,3-dihydropyridazine-4-carboxamide] | – | 292 | –
COC[C@@H](C)Nc1n[nH]c2nccc(Oc3ccc(NC(=O)c4cc(C(C)C)nn(-c5ccc(F)cc5)c4=O)nc3)c12 [Example 176, (R)-2-(4-fluorophenyl)-6-isopropyl-N-(5-((3-((1-methoxypropan-2-yl)amino)-1H-pyrazolo[3,4-b]pyridin-4-yl)oxy)pyridin-2-yl)-3-oxo-2,3-dihydropyridazine-4-carboxamide] | – | 728 | –
COC[C@@H](C)Nc1n[nH]c2nccc(Oc3ccc(NC(=O)c4cc(C5CC5)cn(-c5ccc(F)cc5)c4=O)nc3)c12 [Example 177, (R)-5-cyclopropyl-1-(4-fluorophenyl)-N-(5-((3-((1-methoxypropan-2-yl)amino)-1H-pyrazolo[3,4-b]pyridin-4-yl)oxy)pyridin-2-yl)-2-oxo-1,2-dihydropyridine-3-carboxamide] | – | 106 | –
COC[C@@H](C)Nc1n[nH]c2nccc(Oc3ccc(NC(=O)c4cc(C)cn(-c5ccc(F)cc5)c4=O)nc3)c12 [Example 178, (R)-1-(4-fluorophenyl)-N-(5-((3-((1-methoxypropan-2-yl)amino)-1H-pyrazolo[3,4-b]pyridin-4-yl)oxy)pyridin-2-yl)-5-methyl-2-oxo-1,2-dihydropyridine-3-carboxamide] | – | 439 | –
CC(C)(O)C1(Nc2n[nH]c3nccc(Oc4ccc(NC(=O)c5ccnn(-c6ccc(F)cc6)c5=O)cc4F)c23)CCCC1 [Example 182, N-(3-fluoro-4-((3-((1-(2-hydroxypropan-2-yl)cyclopentyl)amino)-1H-pyrazolo[3,4-b]pyridin-4-yl)oxy)phenyl)-2-(4-fluorophenyl)-3-oxo-2,3-dihydropyridazine-4-carboxamide] | – | 707 | –
